In patent US20180105492A1, “COMPOUNDS DERIVED FROM 3-ALKYLAMINE-1H-INDOLYL ACRYLATE AND THEIR USE IN THE TREATMENT OF NEURODEGENERATIVE DISEASES” (FUNDACION PARA LA INVESTIGACION BIOMEDICA DEL HOSPITAL …, priority 2014, published 2018):

Experiments:
SH-SY5Y cells = test: Toxicity in SH-SY5Y neuronal cell line, reduction of cell viability (MTT); assay type: cell-based
Method: In order to assess cellular viability, we measured the metabolic reduction of 3-(4,5-Dimethylthiazol-2-yl)-2,5 diphenyltetrazolium bromide (MTT). MTT is an indirect assay to measure cellular viability. It is a colorimetric method based on the reduction of 3-(4,5-Dimethylthiazol-2-yl)-2,5 diphenyltetrazolium. This process is performed by the mitochondrial enzyme succinate-dehydrogenase present in metabolic active cells. Thus, the water-soluble yellow MTT (tetrazolium salt) is transformed into a insoluble purple compound (formazan). Quantity of living cells is directly proportional to the quantity of formazan (Mosmann, 1983, J Immunol Methods, 65: 55-63). […] Therefore, with this assay we can measure cellular surviving and proliferation and also, we can determine the cytotoxicity of potential neuroprotective compounds. In order to assess cellular viability in SH-SY5Y cell line, we added 30 μl/well of MTT (5 mg/mL) and after 2 h, medium was carefully removed to avoid losing the formazan and was diluted in 300 μL of DMSO. Afterwards, samples were transferred to a 96 well-plate and the absorbance was measured at 570 nm using a absorbance/fluorescence reader FluoStar optima®. Every MTT assay was performed in triplicates. Absorbance values obtained with the toxic alone were subtracted to the absorbance values obtained in basal conditions (without treatment). That result was considered as the 100% of cell death and the values obtained with the compounds in the presence of the toxic stimulus were normalized as percentages of that value. For determining the surviving percentage, those percentages of cell death were subtracted to 100. […]
In order to further study its safety profile, the effect of the derivatives on neuronal cells used for neuroprotection experiments, the SH-SY5Y human neuroblastoma cells, was also evaluated. Maintenance and culture methods of this cell line have been described above. For toxicity experiments, SH-SY5Y cells were plated in 96-well plates at the density of 6×10 ^4 cells/well. The experimental conditions were the same as those described for the toxicity study in HepG2 cells.
The results obtained are shown in Table 6 expressed as the lethal dose 50 (LD50), or needed concentration to reduce to 50% the viability of basal conditions (without treatment), measured by the MTT reduction method.

[1] = tested on: Nrf2 transcription factor (Nrf2-ARE); test: Nrf2-ARE induction, luciferase activity in AREc32 (MCF7 cells stably transfected with ARE-LUC); assay type: cell-based; settings: Homo sapiens, 24 h, basal = 1, read-out: Relative Luciferase activity (response versus basal)
Method: For the study of Nrf2 transcription factor, the cellular line AREC32 was used, which is characterized for being stably transfected with the reporter gene of Luciferase linked to the ARE sequence. In the presence electrophilic compounds or oxidative stress, Nrf2 factor binds to ARE sequences, activating luciferase expression and producing a proportional quantity of luciferase. The AREc32 cells were cultured in DMEM media with glutamax, supplemented with 10% fetal bovine serum (FBS), 1% penicillin-streptomycin and 1.6% geneticine (G418) (obtained from GIBCO, Madrid, Spain). Cells were cultured in 75 cm flasks with 11 mL of specific media, incubated at 37° C. and 5% of CO2. Cells were passed every 4-6 days (1:4), whenever the confluence reached 80%. For the experiments, cells were cultured in transparent surface 96 well plates at a density of […] with 100 μL/well. After 24 h in culture, cells were treated with the compounds at different concentrations (1, 10, 30 and 60 μM) during 24 h at 37° C. and 5% CO2. In every experiment it was also included a basal variable, a variable with 10 μM tert-butyl hydroquinone (TBHQ) (positive control) and the variables of the study in a final volume of 100 μL. After an incubation of 24 h with the compounds, luciferase activity was measured by bioluminescence using the commercial kit “Luciferase assay system” (Promega E1500). For that, treatments were removed and cells were washed with 100 μL of PBS 0.1 M. After washing, 20 μL of “lysis buffer” reactive was added to each well. 10 minutes later, luminescence was measured using the multi-well reader FluoStar optima (BMG labtech).
Luminescence was measured in arbitrary units and is directly proportional to luciferase quantity in the wells, which is also directly proportional to Nrf2 transcription factor induction by the specific compound at the established concentration. Measurements were made in duplicate and values were normalized to the basal luminescence value, considered as 1.
The results of Nrf2 induction obtained for the compounds 1 to 16 are shown in Table 1 and are expressed as induction, considering 1 the non-treated cells.

[2] = 24 h incubation, MTT, concentration reducing viability to 50% of basal

SMILES | SH-SY5Y LD50 (SH-SY5Y cells; [2]) | fold induction at 10 µM [1] | fold induction at 30 µM [1] | fold induction at 60 µM [1] | SH-SY5Y LD50 (SH-SY5Y cells; human, 24 h)
C/C=C/C(=O)Oc1ccc2[nH]cc(CCNC(C)=O)c2c1 [Compound 1, 3-(2-acetamidoethyl)-1H-indol-5-yl (E)-2-butenoate] | >100 µM | 2.34 ± 0.2 | 12.1 ± 1.3 | 30.7 ± 1.7 | –
CC(=O)NCCc1c[nH]c2ccc(OC(=O)/C=C/c3ccccc3)cc12 [Compound 2, 3-(2-acetamidoethyl)-1H-indol-5-yl cinnamate] | >100 µM | 1.63 ± 0.2 | 1.78 ± 0.1 | 2.54 ± 0.3 | –
CC(=O)NCCc1c[nH]c2ccc(OC(=O)/C=C/c3ccc(C)cc3)cc12 [Compound 3, 3-(2-acetamidoethyl)-1H-indol-5-yl (E)-3-(4-methylphenyl)acrylate] | 80 µM | 1.26 ± 0.1 | 2.03 ± 0.1 | 3.26 ± 0.3 | –
COc1ccccc1/C=C/C(=O)Oc1ccc2[nH]cc(CCNC(C)=O)c2c1 [Compound 4, 3-(2-acetamidoethyl)-1H-indol-5-yl (E)-3-(2-methoxyphenyl)acrylate] | 64 µM | 1.67 ± 0.1 | 2.01 ± 0.1 | 2.53 ± 0.1 | –
COc1cccc(/C=C/C(=O)Oc2ccc3[nH]cc(CCNC(C)=O)c3c2)c1 [Compound 5, 3-(2-acetamidoethyl)-1H-indol-5-yl (E)-3-(3-methoxyphenyl)acrylate] | 83 µM | 1.39 ± 0.1 | 1.63 ± 0.2 | 2.09 ± 0.2 | –
COc1ccc(/C=C/C(=O)Oc2ccc3[nH]cc(CCNC(C)=O)c3c2)cc1 [Compound 6, 3-(2-acetamidoethyl)-1H-indol-5-yl (E)-3-(4-methoxyphenyl)acrylate] | 60 µM | 2.02 ± 0.2 | 3.4 ± 0.3 | 4.62 ± 0.4 | –
CC(=O)NCCc1c[nH]c2ccc(OC(=O)/C=C/c3ccc(O)cc3)cc12 [Compound 7, 3-(2-acetamidoethyl)-1H-indol-5-yl (E)-3-(4-hydroxyphenyl)acrylate] | >100 µM | 0.95 ± 0.1 | 1.09 ± 0.1 | 1.57 ± 0.1 | –
COc1cc(/C=C/C(=O)Oc2ccc3[nH]cc(CCNC(C)=O)c3c2)ccc1O [Compound 8, 3-(2-acetamidoethyl)-1H-indol-5-yl (E)-3-(4-hydroxy-3-methoxyphenyl)acrylate] | >100 µM | 1.11 ± 0.1 | 1.83 ± 0.1 | 2.36 ± 0.1 | –
CC(=O)NCCc1c[nH]c2ccc(OC(=O)/C=C/c3ccc(F)cc3)cc12 [Compound 9, 3-(2-acetamidoethyl)-1H-indol-5-yl (E)-3-(4-fluorophenyl)acrylate] | >100 µM | 1.92 ± 0.2 | 2.27 ± 0.2 | 4.21 ± 0.6 | –
CC(=O)NCCc1c[nH]c2ccc(OC(=O)/C=C/c3ccc(Br)cc3)cc12 [Compound 10, 3-(2-acetamidoethyl)-1H-indol-5-yl (E)-3-(4-bromophenyl)acrylate] | 60 µM | 1.53 ± 0.2 | 3.12 ± 0.5 | 13.3 ± 2.1 | –
CC(=O)NCCc1c[nH]c2ccc(OC(=O)/C=C/c3ccc(Cl)cc3)cc12 [Compound 11, 3-(2-acetamidoethyl)-1H-indol-5-yl (E)-3-(4-chlorophenyl)acrylate] | >100 µM | 1.18 ± 0.1 | 1.59 ± 0.2 | 3.55 ± 0.9 | –
CC(=O)NCCc1c[nH]c2ccc(OC(=O)/C=C/c3ccc(Cl)c(Cl)c3)cc12 [Compound 12, 3-(2-acetamidoethyl)-1H-indol-5-yl (E)-3-(3,4-dichlorophenyl)acrylate] | 51 µM | 1.16 ± 0.1 | 1.43 ± 0.1 | 2.12 ± 0.2 | –
CC(=O)NCCc1c[nH]c2ccc(OC(=O)/C=C/c3ccccc3C(F)(F)F)cc12 [Compound 13, 3-(2-acetamidoethyl)-1H-indol-5-yl (E)-3-(2-(trifluoromethyl)phenyl)acrylate] | >100 µM | 1.38 ± 0.1 | 1.79 ± 0.1 | 2.55 ± 0.2 | –
CC(=O)NCCc1c[nH]c2ccc(OC(=O)/C=C/c3cccc(C(F)(F)F)c3)cc12 [Compound 14, 3-(2-acetamidoethyl)-1H-indol-5-yl (E)-3-(3-(trifluoromethyl)phenyl)acrylate] | >100 µM | 1.34 ± 0.2 | 1.64 ± 0.2 | 2.13 ± 0.2 | –
CC(=O)NCCc1c[nH]c2ccc(OC(=O)/C=C/c3ccc(C(F)(F)F)cc3)cc12 [Compound 15, 3-(2-acetamidoethyl)-1H-indol-5-yl (E)-3-(4-(trifluoromethyl)phenyl)acrylate] | 70 µM | 2.34 ± 0.2 | 4.99 ± 0.5 | 28.9 ± 2.9 | –
CC(=O)NCCc1c[nH]c2ccc(OC(=O)/C=C/c3ccc([N+](=O)[O-])cc3)cc12 [Compound 16, 3-(2-acetamidoethyl)-1H-indol-5-yl (E)-3-(4-nitrophenyl)acrylate] | >100 µM | 1.69 ± 0.1 | 2.41 ± 0.1 | 3.19 ± 0.1 | –
COc1ccc2[nH]cc(CCNC(C)=O)c2c1 [Melatonin, reference compound] | – | – | – | – | >100 µM
